The values below are quoted from earlier work in patent US9399025B2, “Modified release dosage forms of skeletal muscle relaxants” (APTALIS PHARMATECH, INC., priority 2003, dated 2016).

Consider `CN(C)CCC=C1c2ccccc2C=Cc2ccccc21` [Cyclobenzaprine], for which, where the note is “after oral administration”, the Elimination half-life entry is recorded as “one to three”. The “Absorption after oral administration” value (oral) is given as “well absorbed”.
